Where a SMILES comes first, the peptide text is derived from it. The star is where a group is joined. Cbz = O=C(OCc1ccccc1)*
Tests used:
[1] = test system: EFHD2; experiment: Ibuprofen-induced EFHD2 degradation with proteasome/lysosome inhibitors, western blot; format: cell-based, human; details: for effect on ibuprofen-induced EFHD2 degradation: H1299 cells pretreated 0.5 hr, then 600 μM ibuprofen
Method: FIG. 6. Ibuprofen activates both proteasomal and lysosomal degradation of EFHD2. H1299 cells were pretreated with MG132 and/or Baf-A1 for 0.5 hr, then followed by the treatment of 600 μM ibuprofen for the indicated time. EFHD2 expression was determined by western blot assay.
Western blot analysis. Proteins were separated using 10% or 12.5% SDS-PAGE and transferred onto a PVDF membrane via electroblotting at 400V at 4° C. for 3 hr in 25 mmol/L Tris-HCl, 197 mmol/L glycine, and 13.3% (v/v) methanol. Then, 5% (w/v) skim milk in TBST was used for the blocking reaction, and the primary antibodies were incubated at room temperature overnight. After TBST washes, horseradish peroxidase-conjugated secondary antibodies were further incubated at room temperature for 1 hr. […] The primary antibodies used in this study included EFHD2 (ab106667; abcam), E-cadherin (#5296; Cell Signaling), vimentin (#3932; Cell Signaling), CAV1 (#3238; Cell Signaling), and β-actin (ab8226; abeam).
As ubiquitin-proteasome pathway and autophagy-lysosome pathway are two major systems responsible for cellular protein degradation, we then investigated whether any of the two systems has involved in ibuprofen-mediated EFHD2 degradation.

[2] = test system: EFHD2; experiment: Western blot of EFHD2 expression in cancer cells; format: cell-based, human; details: H1299 and F4 cells
Method: Cell lines and cell culture. Human lung adenocarcinoma cells A549 and H1299 were obtained from the American Type Culture Collection (ATCC, Maryland, USA). Human lung adenocarcinoma cell lines CL1-0 were from National Taiwan University Hospital, Taipei, Taiwan. Cell line CL1-5-F4 (F4) was established by selection of increasingly invasive cell populations from CL1-0 in according to procedures described by Chu Y W et al (Am J Respir Cell Mol Biol (1997) 17:353-360). H1299 and F4 cells were cultured in DMEM/F-12 media (Invitrogen). A549 and CL1-0 cells were maintained in RPMI 1640 media (Invitrogen). All culture media were supplemented with 10% fetal bovine serum and 1% antibiotics (GIBCO). All cells were grown in a humidified atmosphere of 5% CO2 and 95% air at 37° C. Western blot analysis. Proteins were separated using 10% or 12.5% SDS-PAGE and transferred onto a PVDF membrane via electroblotting at […] at 4° C. for 3 hr in 25 mmol/L Tris-HCl, 197 mmol/L glycine, and 13.3% (v/v) methanol. Then, 5% (w/v) skim milk in TBST was used for the blocking reaction, and the primary antibodies were incubated at room temperature overnight. After TBST washes, horseradish peroxidase-conjugated secondary antibodies were further incubated at room temperature for 1 hr. […] The primary antibodies used in this study included EFHD2 (ab106667; abcam), E-cadherin (#5296; Cell Signaling), vimentin (#3932; Cell Signaling), CAV1 (#3238; Cell Signaling), and β-actin (ab8226; abeam). […] Results are illustrated in FIG. 4.

[3] = test system: H1299 cells; experiment: H1299 xenograft mouse model, tumor size; format: in vivo, BALB/c nude mice; details: cisplatin 5 mg/Kg injection once per week for 3 weeks; ibuprofen 25 mg/Kg orally; alone or in combination
Excerpt: Animals. All procedures (2017-305) involving animal research were approved by the Institutional Animal Care and Use Committee (IACUC) at Chinese Medical University Hospital (CMUH) (Taichung, Taiwan). 5-week-old male BALB/c nude mice (18 to 25 g) were obtained from the National Laboratory Animal Center (Taipei, Taiwan). Mice were maintained in an environment under a 12: 12 hr light/dark cycle with access to food and water ad libitum.
BALB/c nude mice were orthotropically xenografted with H1299 cells (1×10^6 cells) by stereotactic injection in the back. Mouse tumor progression (including growth and metastasis) was measured by IVIS weekly until week 7.
In this example, in vivo effect of the combined treatment of ibuprofen and cisplatin was investigated via the xenograft mouse model established in accordance with the procedures described in the “Materials and methods” section. For treatment purpose, mice were treated with cisplatin (5 mg/Kg, via injection, once per week for 3 weeks) and ibuprofen (25 mg/Kg, orally fed, on the day when cisplatin was injected, and 1 day prior to, and 1 day after the cisplatin injection), alone or in combination. Mice were then sacrificed and the tumors were isolated and further analyzed. Results are depicted in FIG. 9.

[4] = test system: H1299 cells; experiment: MTT cell survival, H1299 shGFP / shEFHD2 cells; format: cell-based, human
Method: MTT assay was used to determine cell survival ratio in the control cells (H1299^shGFP) or cells having the expression of EFHD2 being knock-out via interference RNA (H1299^shEFHD2) with or without the treatment of ibuprofen and/or cisplatin.
(§1) MTT assay. […] The absorbance of the solution at 570 nm was measured by spectrophotometer.
In this example, the mechanism of ibuprofen and its combination with a chemotherapeutic drug (i.e., cisplatin) were investigated via comparing their actions on the survival of H1299 cells in the presence or absence of EFHD2. To this purpose, H1299 cells were pre-treated with the present shRNA (i.e., H1299^shEFHD2) to knockdown the expression of EFHD2 in H1299 cells in accordance with procedures described in Example 1; and the control cells were pre-treated with shGFP. Results are depicted in FIG. 7.

[5] = test system: F4 cells; experiment: Sensitization of F4 cells to cisplatin by 2-APAs; format: cell-based, human; details: F4 cells pre-treated with 20 μM 2-APA, data not shown
Excerpt: In this example, the effect of 2-APAs (e.g., ibuprofen, flurbiprofen, naproxen and ketoprofen) and cisplatin on F4 cells were investigated.

[6] = test system: EFHD2 mRNA; experiment: qPCR of EFHD2 mRNA levels with or without ibuprofen; format: cell-based, human; details: data not shown
[7] = test system: H1299 and F4 cells; experiment: Migration and invasion by matrigel transwell system; format: cell-based, human
Method: FIG. 5 Ibuprofen reduced EFHD2 expression in cancer cells. (A) The effect of various doses of ibuprofen on EFHD2 in H1299 and F4 cells were respectively determined by Western blot assay; (B) The effects of ibuprofen on the invasion and migration ability of H1299 and F4 cells were analyzed by matrigel transwell system. Wound healing assay. The in vitro migration assay was performed using a Culture-Insert well (ibidi GmbH, German/v). Cancer cells (4.5×10^4 cells) were cultured in suitable media in the device for 24 hr. After removal of the Culture-Insert, cancer cells were cultured for an additional 8 hr. The migration distance of cancer cells was recorded, and the migration area was measured using ImageJ software. Matrigel invasion assay. For in vitro invasion assay, cancer cells (1.5×10^5 cells in 200 μL) were suspended in the upper half of a PET membrane transwell insert chamber (BD Biosciences), which was coated with Matrigel (1 mg/mL; BD Biosciences), on a 24-well plate. Medium supplemented with 10% FBS was added as a chemoattractant to the lower half After incubation at 37° C. for 24 hr, cancer cells that passed through the insert were fixed with 3.7% formalin (Sigma-Aldrich) and stained with 0.1% crystal violet (Sigma-Aldrich).

[8] = test system: A549 cells; experiment: MTT cell survival, A549 pcDNA / pEFHD2 cells; format: cell-based, human
Method: FIG. 8 Susceptibility of cancer cells lacking endogenous EFHD2 to chemotherapeutic drug is not enhanced by ibuprofen. MTT assay was used to determine cell survival ratio in the control cells (A549^pcDNA) or cells transfecting with vectors that carrying exogenous EFHD2 gene (A549^pEFHD2) with or without the treatment of ibuprofen and/or cisplatin.
as §1
In this example, instead of knocking down the endogenous EFHD2 expression via interference RNA, human lung adenocarcinoma cells A549 having low level of endogenous EFHD2 were used to further elucidate the action of ibuprofen (i.e., enhancing the susceptibility of cancer cells to chemotherapeutic drugs). Results are illustrated in FIG. 8.

| Structure (SMILES) | expression of EFHD2 [2] | sensitivity to subsequent cisplatin treatment (cell death) [5] | also measured |
| --- | --- | --- | --- |
| CO/C1=C\C(C)=C\[C@@H](C)[C@@H](O)[C@@H](C)C/C(C)=C/C=C/[C@H](OC)[C@@H]([C@@H](C)[C@@H](O)[C@H](C)[C@@]2(O)C[C@@H](O)[C@H](C)[C@@H](C(C)C)O2)OC1=O [Baf-A1, bafilomycin A1] |  |  | effect on ibuprofen-induced EFHD2 degradation [1]: incapable of reducing ibuprofen-induced EFHD2 degradation |
| CC(C)C[C@@H](C=O)NC(=O)[C@H](CC(C)C)NC(=O)[C@H](CC(C)C)NC(=O)OCc1ccccc1 [MG132] (Cbz-Leu-Leu-Leu-aldehyde) |  |  | effect on ibuprofen-induced EFHD2 degradation [1]: incapable of reducing ibuprofen-induced EFHD2 degradation |
| CC(=O)Oc1ccccc1C(=O)O [aspirin] | possessed no such effect |  |  |
| N.N.[Cl][Pt][Cl] [cisplatin] |  |  | size of the tumor [3]: significantly reduce the size of the tumor; survival ratio ([4]; H1299^shGFP and H1299^shEFHD2 cells, cisplatin alone, MTT 24 hours): decreased with an increase in the concentration of cisplatin |
| O=C(O)Cc1ccccc1Nc1c(Cl)cccc1Cl [diclofenac] | possessed no such effect |  |  |
| CC(C(=O)O)c1ccc(-c2ccccc2)c(F)c1 (stereo not shown) [flurbiprofen] | effective in suppressing the expression of EFHD2 | more sensitive to the subsequent treatment of cisplatin |  |
| CC(C)Cc1ccc(C(C)C(=O)O)cc1 (stereo not shown) [ibuprofen] | effective in suppressing the expression of EFHD2 | more sensitive to the subsequent treatment of cisplatin | EFHD2 mRNA levels [6]: did not influence EFHD2 mRNA levels; invasion ability [7]: attenuated; migration ability [7]: attenuated; size of the tumor [3]: more effective than cisplatin; susceptibility to cisplatin treatment ([8]; A549^pEFHD2 vs A549^pEFHD2+ibuprofen): failed to increase their susceptibilities to cisplatin; susceptibility to cisplatin treatment ([8]; A549^pcDNA vs A549^pcDNA+ibuprofen): no enhanced susceptibility; mechanism of EFHD2 degradation ([1]; H1299 cells, 600 μM ibuprofen): both proteasomal- and lysosomal-dependent mechanism; level of EFHD2 ([2]; various doses of ibuprofen): reduce the level of EFHD2 in a dose-dependent manner; survival ratio, combination with cisplatin ([4]; H1299^shEFHD2 cells vs H1299^shGFP+ibuprofen): comparable to the control cells subjecting to the same treatment; survival ratio, combination with cisplatin ([4]; H1299^shGFP cells, ibuprofen (600 and cisplatin (1, 2, 5, 10 or 20 μM))): lower than those treated with cisplatin alone |
| CC(C(=O)O)c1cccc(C(=O)c2ccccc2)c1 (stereo not shown) [ketoprofen] | effective in suppressing the expression of EFHD2 | more sensitive to the subsequent treatment of cisplatin |  |
| O=C(c1ccccc1)c1ccc2n1CCC2C(=O)O (stereo not shown) [ketorolac] | possessed no such effect |  |  |
| Cc1cccc(Nc2ccccc2C(=O)O)c1C [mefenamic acid] | possessed no such effect |  |  |
| COc1ccc2cc([C@H](C)C(=O)O)ccc2c1 [naproxen] | effective in suppressing the expression of EFHD2 | more sensitive to the subsequent treatment of cisplatin |  |
| CN1C(C(=O)Nc2ccccn2)=C(O)c2ccccc2S1(=O)=O [piroxicam] | possessed no such effect |  |  |
| CC1=C(CC(=O)O)c2cc(F)ccc2/C1=C\c1ccc([S+](C)[O-])cc1 (stereo not shown) [sulindac] | possessed no such effect |  |  |
